From the supplement of paper PMC11208160

Assay: recombinant UMI read abundance after kanamycin selection (control-corrected) (log10(CPM+1)); higher = more efficient recombination; extreme values may be limits of the assay; sequences stand for … in AGTGCAGAGAAAATCGGCCAGTTTTCTCTGCCTGCAGTCCGCATGCCGTGGGACCCCTTGGGTTCTAACCTGTTGCCTAGATTTATGCAGCGGACTGCCTTTCTCCCAAAGTGATAAACCGG…AGGTTGGTTTCACT; site = the 11-nt donor
Summary of the method: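 Sequencing read counts were converted to CPM, averaged over two replicates and scaled by control-derived factors. Results are given as log10(CPM+1). The reads covered the donor–target junction of recombinant UMIs from a pooled Escherichia coli screen of donor and donor-binding-loop pairs for the IS621 bridge recombinase.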
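Also: IS621 bridge recombinase in Escherichia coli cells against a fixed T5 target plasmid.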

## CATGCAGCATGGACCGGTTTTCCCGGTAATCCGTATTTGCT (site CACGCAGCTAG)
  recombinant UMI read abundance (log10): 1.29

## CATGCAGCATGGACCGGTTTTCCCGGTAATCCGTATTTGCT (site CAGGCAGCTAG)
  recombinant UMI read abundance (log10): 0.00853

## CATGCAGCATGGACCGGTTTTCCCGGTAATCCGTATTTGCT (site CATGCAGCTAG)
  recombinant UMI read abundance (log10): 1.97

## CATGCATCATGGACCGGTTTTCCCGGTAATCCGTATTTGCT (site CATGCATCTAG)
  recombinant UMI read abundance (log10): 1.49

## CATGGATCATGGACCGGTTTTCCCGGTAATCCGTATTTGGA (site CATGGATCTTC)
  recombinant UMI read abundance (log10): 2.32

## CATGTGACATGGACCGGTTTTCCCGGTAATCCGTATTTGAT (site CATGTGACTAT)
  recombinant UMI read abundance (log10): 2.03

## CATTATCCATGGACCGGTTTTCCCGGTAATCCGTATTTGCT (site AATTATCCTAG)
  recombinant UMI read abundance (log10): 0.352

## CATTATCCATGGACCGGTTTTCCCGGTAATCCGTATTTGCT (site CATTATCCTAG)
  recombinant UMI read abundance (log10): 1.59

## CATTATCCATGGACCGGTTTTCCCGGTAATCCGTATTTGCT (site GATTATCCTAG)
  recombinant UMI read abundance (log10): 0

## CATTATCCATGGACCGGTTTTCCCGGTAATCCGTATTTGCT (site TATTATCCTAG)
  recombinant UMI read abundance (log10): 0

## CATTCGCCATGGACCGGTTTTCCCGGTAATCCGTATTTGAA (site CATTCGCCTTT)
  recombinant UMI read abundance (log10): 0.0116

## CATTCGTCATGGACCGGTTTTCCCGGTAATCCGTATTTGGC (site CATTCGTCTGC)
  recombinant UMI read abundance (log10): 0.595

## CATTGAACATGGACCGGTTTTCCCGGTAATCCGTATTTGCC (site CATTGAACTGG)
  recombinant UMI read abundance (log10): 0

## CATTGGACATGGACCGGTTTTCCCGGTAATCCGTATTTGAC (site AATTGGACTGT)
  recombinant UMI read abundance (log10): 0.565

## CATTGGACATGGACCGGTTTTCCCGGTAATCCGTATTTGAC (site CATTGGACTGT)
  recombinant UMI read abundance (log10): 1.96

## CATTGGACATGGACCGGTTTTCCCGGTAATCCGTATTTGAC (site GATTGGACTGT)
  recombinant UMI read abundance (log10): 0

## CATTGGACATGGACCGGTTTTCCCGGTAATCCGTATTTGAC (site TATTGGACTGT)
  recombinant UMI read abundance (log10): 0

## CCAAAACCATGGACCGGTTTTCCCGGTAATCCGTATTTGAG (site CCAAAACCTCT)
  recombinant UMI read abundance (log10): 0

## CCAACTTCATGGACCGGTTTTCCCGGTAATCCGTATTTGTA (site CCAACTTCTTA)
  recombinant UMI read abundance (log10): 0.301

## CCAAGCGCATGGACCGGTTTTCCCGGTAATCCGTATTTGTA (site CCAAGCGCTTA)
  recombinant UMI read abundance (log10): 1.3

## CCAATCACATGGACCGGTTTTCCCGGTAATCCGTATTTGTT (site CCAATCACTAA)
  recombinant UMI read abundance (log10): 0.84

## CCACGAACATGGACCGGTTTTCCCGGTAATCCGTATTTGTC (site ACACGAACTGA)
  recombinant UMI read abundance (log10): 0

## CCACGAACATGGACCGGTTTTCCCGGTAATCCGTATTTGTC (site CCACGAACTGA)
  recombinant UMI read abundance (log10): 0.774

## CCACGAACATGGACCGGTTTTCCCGGTAATCCGTATTTGTC (site GCACGAACTGA)
  recombinant UMI read abundance (log10): 0

## CCACGAACATGGACCGGTTTTCCCGGTAATCCGTATTTGTC (site TCACGAACTGA)
  recombinant UMI read abundance (log10): 0

## CCAGCAGCATGGACCGGTTTTCCCGGTAATCCGTATTTGTC (site CCAGCAGCTGA)
  recombinant UMI read abundance (log10): 0.4

## CCAGCATCATGGACCGGTTTTCCCGGTAATCCGTATTTGCT (site CCAGCATCTAG)
  recombinant UMI read abundance (log10): 0.0975

## CCAGCATCATGGACCGGTTTTCCCGGTAATCCGTATTTGCT (site CGATCATCTAG)
  recombinant UMI read abundance (log10): 0

## CCAGCTGCATGGACCGGTTTTCCCGGTAATCCGTATTTGCC (site CCAGCTGCTGG)
  recombinant UMI read abundance (log10): 1.26

## CCAGGACCATGGACCGGTTTTCCCGGTAATCCGTATTTGGG (site CAAGGACCTCC)
  recombinant UMI read abundance (log10): 0.0304

## CCAGGACCATGGACCGGTTTTCCCGGTAATCCGTATTTGGG (site CCAGGACCTCC)
  recombinant UMI read abundance (log10): 0.00761

## CCAGGACCATGGACCGGTTTTCCCGGTAATCCGTATTTGGG (site CGAGGACCTCC)
  recombinant UMI read abundance (log10): 0

## CCAGGACCATGGACCGGTTTTCCCGGTAATCCGTATTTGGG (site CTAGGACCTCC)
  recombinant UMI read abundance (log10): 0.00678

## CCAGGTCCATGGACCGGTTTTCCCGGTAATCCGTATTTGCA (site CCAGGTCCTTG)
  recombinant UMI read abundance (log10): 0.421

## CCAGGTCCATGGACCGGTTTTCCCGGTAATCCGTATTTGCA (site CCCGGTCCTTG)
  recombinant UMI read abundance (log10): 0

## CCAGGTCCATGGACCGGTTTTCCCGGTAATCCGTATTTGCA (site CCGGGTCCTTG)
  recombinant UMI read abundance (log10): 0

## CCAGGTCCATGGACCGGTTTTCCCGGTAATCCGTATTTGCA (site CCTGGTCCTTG)
  recombinant UMI read abundance (log10): 0

## CCAGGTGCATGGACCGGTTTTCCCGGTAATCCGTATTTGAG (site CCAGGTGCTAT)
  recombinant UMI read abundance (log10): 0.721

## CCAGGTGCATGGACCGGTTTTCCCGGTAATCCGTATTTGAG (site CCAGGTGCTCT)
  recombinant UMI read abundance (log10): 0.843

## CCAGGTGCATGGACCGGTTTTCCCGGTAATCCGTATTTGAG (site CCAGGTGCTGT)
  recombinant UMI read abundance (log10): 0

## CCAGGTGCATGGACCGGTTTTCCCGGTAATCCGTATTTGAG (site CCAGGTGCTTT)
  recombinant UMI read abundance (log10): 0.424

## CCAGGTTCATGGACCGGTTTTCCCGGTAATCCGTATTTGAT (site CCAGGTACTAT)
  recombinant UMI read abundance (log10): 0.00235

## CCAGGTTCATGGACCGGTTTTCCCGGTAATCCGTATTTGAT (site CCAGGTCCTAT)
  recombinant UMI read abundance (log10): 0.00776

## CCAGGTTCATGGACCGGTTTTCCCGGTAATCCGTATTTGAT (site CCAGGTGCTAT)
  recombinant UMI read abundance (log10): 0

## CCAGGTTCATGGACCGGTTTTCCCGGTAATCCGTATTTGAT (site CCAGGTTCTAT)
  recombinant UMI read abundance (log10): 0.602

## CCAGGTTCATGGACCGGTTTTCCCGGTAATCCGTATTTGTC (site CCAGGTTCTGA)
  recombinant UMI read abundance (log10): 2.24

## CCAGTCACATGGACCGGTTTTCCCGGTAATCCGTATTTGGG (site CAAGTCACTCC)
  recombinant UMI read abundance (log10): 0.0155

## CCAGTCACATGGACCGGTTTTCCCGGTAATCCGTATTTGGG (site CCAGTCACTCC)
  recombinant UMI read abundance (log10): 0.026

## CCAGTCACATGGACCGGTTTTCCCGGTAATCCGTATTTGGG (site CGAGTCACTCC)
  recombinant UMI read abundance (log10): 0.00845

## CCAGTCACATGGACCGGTTTTCCCGGTAATCCGTATTTGGG (site CTAGTCACTCC)
  recombinant UMI read abundance (log10): 0.0251

## CCAGTTGCATGGACCGGTTTTCCCGGTAATCCGTATTTGAT (site CCAGATGCTAT)
  recombinant UMI read abundance (log10): 0.00647

## CCAGTTGCATGGACCGGTTTTCCCGGTAATCCGTATTTGAT (site CCAGCTGCTAT)
  recombinant UMI read abundance (log10): 0.249

## CCAGTTGCATGGACCGGTTTTCCCGGTAATCCGTATTTGAT (site CCAGGTGCTAT)
  recombinant UMI read abundance (log10): 0.00995

## CCAGTTGCATGGACCGGTTTTCCCGGTAATCCGTATTTGAT (site CCAGTTGCTAT)
  recombinant UMI read abundance (log10): 1.42

## CCATAAACATGGACCGGTTTTCCCGGTAATCCGTATTTGCT (site CCATAAACTAG)
  recombinant UMI read abundance (log10): 1.06

## CCATACCCATGGACCGGTTTTCCCGGTAATCCGTATTTGCG (site CCATACCCTCG)
  recombinant UMI read abundance (log10): 0.287

## CCATACCCATGGACCGGTTTTCCCGGTAATCCGTATTTGTG (site CCATACCCTCA)
  recombinant UMI read abundance (log10): 0.00448

## CCATCGACATGGACCGGTTTTCCCGGTAATCCGTATTTGTT (site CAATCGACTAA)
  recombinant UMI read abundance (log10): 0.00346

## CCATCGACATGGACCGGTTTTCCCGGTAATCCGTATTTGTT (site CCATCGACTAA)
  recombinant UMI read abundance (log10): 0.266

## CCATCGACATGGACCGGTTTTCCCGGTAATCCGTATTTGTT (site CGATCGACTAA)
  recombinant UMI read abundance (log10): 0

## CCATCGACATGGACCGGTTTTCCCGGTAATCCGTATTTGTT (site CTATCGACTAA)
  recombinant UMI read abundance (log10): 0.0452

## CCATGAGCATGGACCGGTTTTCCCGGTAATCCGTATTTGAG (site CCATGAGCTCT)
  recombinant UMI read abundance (log10): 0.662

## CCATGATCATGGACCGGTTTTCCCGGTAATCCGTATTTGAA (site CCATGATCTTT)
  recombinant UMI read abundance (log10): 1.02

## CCATTATCATGGACCGGTTTTCCCGGTAATCCGTATTTGCT (site CCATTATCTAG)
  recombinant UMI read abundance (log10): 1.49

## CCATTATCATGGACCGGTTTTCCCGGTAATCCGTATTTGCT (site CGATCATCTAG)
  recombinant UMI read abundance (log10): 0

## CCATTCTCATGGACCGGTTTTCCCGGTAATCCGTATTTGGG (site CCATTCTCTCC)
  recombinant UMI read abundance (log10): 0

## CCATTCTCATGGACCGGTTTTCCCGGTAATCCGTATTTGGG (site CCCTTCTCTCC)
  recombinant UMI read abundance (log10): 0.00367

## CCATTCTCATGGACCGGTTTTCCCGGTAATCCGTATTTGGG (site CCGTTCTCTCC)
  recombinant UMI read abundance (log10): 0.00306

## CCATTCTCATGGACCGGTTTTCCCGGTAATCCGTATTTGGG (site CCTTTCTCTCC)
  recombinant UMI read abundance (log10): 0.0196

## CCATTTACATGGACCGGTTTTCCCGGTAATCCGTATTTGCT (site CCATTTACTAG)
  recombinant UMI read abundance (log10): 0.933

## CCATTTACATGGACCGGTTTTCCCGGTAATCCGTATTTGCT (site CCCTTTACTAG)
  recombinant UMI read abundance (log10): 0

## CCATTTACATGGACCGGTTTTCCCGGTAATCCGTATTTGCT (site CCGTTTACTAG)
  recombinant UMI read abundance (log10): 0

## CCATTTACATGGACCGGTTTTCCCGGTAATCCGTATTTGCT (site CCTTTTACTAG)
  recombinant UMI read abundance (log10): 0.00937

## CCCAACCCATGGACCGGTTTTCCCGGTAATCCGTATTTGTG (site CCCAACCCTCA)
  recombinant UMI read abundance (log10): 0.0205

## CCCACCGCATGGACCGGTTTTCCCGGTAATCCGTATTTGCC (site CCCACCGCTGG)
  recombinant UMI read abundance (log10): 0.815
